Test results: patent US20150064286A1, “PREPARATION AND COMPOSITIONS OF HIGHLY BIOAVAILABLE ZEROVALENT SULFUR AND USES THEREOF” (EMORY UNIVERSITY, priority 2011, published 2015)

Legend:
[1] = Percentage bioactive sulfur contained in hydrogen sulfide prodrugs; assay type: physicochemical; settings: sulfur capable of being converted into hydrogen sulfide in vivo
cavernosal smooth muscle = settings: Shukla et al., BJU Int. 2009; cited from earlier work
superoxide formation = settings: Shukla et al., BJU Int. 2009; cited from earlier work
[2] = tested on: p47^phox (a subunit of NOX); settings: Shukla et al., BJU Int. 2009; cited from earlier work
[3] = biological target: phosphodiesterase type 5 (PDE5) (Homo sapiens, UniProt O76074); settings: Sparatore et al. 2011; cited from earlier work
NADPH oxidase (NOX) = settings: Sparatore et al. 2011; cited from earlier work
pregnant rat uterus = pregnant rat uterus in vitro, Sidhu et al. 2001; cited from earlier work
angiogenesis = settings: NaHS in the drinking water, via increasing VEGF expression, Givvimani et al. 2011; cited from earlier work
[4] = Solubility in carbon disulfide; assay type: physicochemical
Experimental: The solubility of the composition in carbon disulfide was obtained by adding 6 mL of carbon disulfide to 0.500 g of the final product and determining the weight of the residue.

| Compound | % Bioactive sulfur (w/w) [1] | also measured |
| --- | --- | --- |
| NC(=S)c1ccc(O)cc1 [4-hydroxythiobenzamide] | 20.9 % (w/w) | – |
| CCCc1nn(C)c2c(=O)[nH]c(-c3cc(S(=O)(=O)N4CCN(CC(=O)Oc5ccc(-c6cc(=S)ss6)cc5)CC4)ccc3OCC)nc12 [ACS 6] | 3.5 % (w/w) | relaxation of cavernosal smooth muscle (cavernosal smooth muscle): equipotently; inhibition of superoxide formation (superoxide formation): more than sildenafil citrate; inhibition of expression of p47phox [2]: more than sildenafil citrate; effect of H2S released by ACS6 on PDE5 [3]: inhibits; effect of H2S released by ACS6 on NOX expression activity (NADPH oxidase (NOX)): inhibits |
| O=C(Cc1ccccc1Nc1c(Cl)cccc1Cl)Oc1ccc(-c2cc(=S)ss2)cc1 [ACS 15] | 6.3 % (w/w) | – |
| O=C(CCC/C=C\C[C@@H]1[C@@H](CC[C@@H](O)CCc2ccccc2)[C@H](O)C[C@@H]1O)Oc1ccc(-c2cc(=S)ss2)cc1 [ACS 67] | 5.3 % (w/w) | – |
| COc1ccc2c(c1)c(CC(=O)Oc1ccc(-c3cc(=S)ss3)cc1)c(C)n2C(=O)c1ccc(Cl)cc1 [ATB 343] | 5.6 % (w/w) | – |
| COc1ccc2cc(C(C)C(=O)Oc3ccc(C(N)=S)cc3)ccc2c1 (stereo not drawn) [ATB 346] | 8.8 % (w/w) | – |
| C=CCSSCC=C [Diallyl disulfide] | 45.1 % (w/w) | – |
| C=CCSSSCC=C [Diallyl trisulfide] | 53.9 % (w/w) | – |
| c1ccc(CSSSCc2ccccc2)cc1 [Dibenzyl trisulfide] | 11.5 % (w/w) | – |
| C1COCCN1.COc1ccc(P(=S)(S)N2CCOCC2)cc1 (stereo not drawn) [GYY 4137] | 8.5 % (w/w) | – |
| [Na+].[Na+].[S-2] [Na2S] | 41 % (w/w) | – |
| S [NaHS, sodium hydrogen sulfide] | 57 % (w/w) | uterine spontaneous contractility (pregnant rat uterus): significant dose-dependent decreases; angiogenesis (angiogenesis): augmented angiogenesis |
| [S] [Pure alpha- or beta-elemental sulfur, elemental sulfur] | – | Solubility in carbon disulfide [4]: completely soluble |
| C[S+]([O-])CCCCN=C=S (stereo not drawn) [Sulforaphane] | 18 % (w/w) | – |
